# System: Aβ42 production
# Test: Quantification of Aβ peptide in culture of neurons from rat fetus brain (Aβ ELISA)
# Format: cell-based
# Details: Neuron, 72 h; rat primary neuronal culture (cerebral cortex, embryonic day 18 Wistar rats); medium collected three days after addition of the compound; Aβx-42 ELISA; read-out: Aβ42 production reducing effect IC50
# Method in brief: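 Primary cortical neurons from embryonic day 18 Wistar rats were cultured 4 days, then exposed to compound in Neurobasal/B27 without 2-ME, final DMSO ≤1%. After three days, medium was collected and Aβx-42 measured undiluted by sandwich ELISA.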
row,Compound,IC50 [nM]
1,"COc1ccc(C(=O)Nc2ccc(F)c([C@]34CCC[C@H]3CSC(N)=N4)c2)nc1 (single isomer, unassigned) [Example 174, N-[3-((4aR*,7aS*)-2-amino-4a,5,6,7-tetrahydro-4H-cyclopenta[d][1,3]thiazin-7a-yl)-4-fluorophenyl]-5-methoxypyridine-2-carboxamide]",11
2,"C[C@H]1OC[C@]2(c3cc(NC(=O)c4ccncn4)ccc3F)N=C(N)SC[C@H]12 (relative stereo) [Example 60, N-[3-((4aS*,5R*,7aS*)-2-amino-5-methyl-4a,5-dihydro-4H-furo[3,4-d][1,3]thiazin-7a-yl)-4-fluorophenyl]-pyrimidine-4-carboxamide]",12
3,"NC1=N[C@@]2(c3cc(NC(=O)c4nccs4)ccc3F)CCC[C@H]2CS1 (single isomer, unassigned) [Example 137, N-[3-((4aR*,7aS*)-2-amino-4a,5,6,7-tetrahydro-4H-cyclopenta[d][1,3]thiazin-7a-yl)-4-fluorophenyl]-thiazole-2-carboxamide]",47
4,"NC1=N[C@@]2(c3cc(NC(=O)c4cnc(OCF)cn4)ccc3F)CCO[C@H](CF)[C@H]2CS1 (relative stereo) [Example 144, N-[3-((4aS*,5S*,8aS*)-2-amino-5-fluoromethyl-4a,5,7,8-tetrahydro-4H-6-oxa-3-thia-1-azanaphthalen-8a-yl)-4-fluorophenyl]-5-fluoromethoxypyrazine-2-carboxamide]",11
5,"N#Cc1ccc(C(=O)Nc2ccc(F)c([C@]34C[C@H](F)C[C@H]3CSC(N)=N4)c2)nc1 (relative stereo) [Example 91, (+)-N-[3-((4aR*,6R*,7aS*)-2-amino-6-fluoro-4a,5,6,7-tetrahydro-4H-cyclopenta[d][1,3]thiazin-7a-yl)-4-fluorophenyl]-5-cyanopyridine-2-carboxamide]",1.4
6,"N#Cc1ccc(C(=O)Nc2ccc(F)c([C@]34CCCCC[C@H]3CSC(N)=N4)c2)nc1 (relative stereo) [Example 33, (+)-N-[3-((4aR*,9aS*)-2-amino-4a,5,6,7,8,9-hexahydro-4H-cyclohepta[d][1,3]thiazin-9a-yl)-4-fluorophenyl]-5-cyanopyridine-2-carboxamide]",10
7,"C[C@H]1OC[C@]2(c3cc(NC(=O)c4ccc(C#N)cn4)ccc3F)N=C(N)SC[C@H]12 (relative stereo) [Example 54, N-[3-((4aS*,5R*,7aS*)-2-amino-5-methyl-4,5-dihydro-4H-furo[3,4-d][1,3]thiazin-7a-yl-4-fluorophenyl]-5-cyanopyridine-2-carboxamide]",1.7
8,"NC1=N[C@@]2(c3cc(NC(=O)c4ncccc4Br)ccc3F)CCC[C@H]2CS1 (single isomer, unassigned) [Example 173, N-[3-((4aR*,7aS*)-2-amino-4a,5,6,7-tetrahydro-4H-cyclopenta[d][1,3]thiazin-7a-yl)-4-fluorophenyl]-3-bromopyridine-2-carboxamide]",72
9,"NC1=N[C@@]2(c3cc(NC(=O)c4ccc(OC(F)F)cn4)ccc3F)CCO[C@H](CF)[C@H]2CS1 (relative stereo) [Example 147, N-[3-((4aS*,5S*,8aS*)-2-amino-5-fluoromethyl-4a,5,7,8-tetrahydro-4H-6-oxa-3-thia-1-azanaphthalen-8a-yl)-4-fluorophenyl]-5-difluoromethoxypyridine-2-carboxamide]",12
10,NC1=N[C@@]2(c3cc(NC(=O)c4ncc(Br)cn4)ccc3F)CCCC[C@H]2CS1 [Example 120],38
11,"NC1=N[C@@]2(c3cc(NC(=O)c4ccc(Cl)cn4)ccc3F)CO[C@H](CF)[C@H]2CS1 [Example 71, N-[3-((4aS,5S,7aS)-2-amino-5-fluoromethyl-4a,5-dihydro-4H-furo[3,4-d][1,3]thiazin-7a-yl)-4-fluorophenyl]-5-chloropyridine-2-carboxamide]",1
12,COc1cccnc1C(=O)Nc1ccc(F)c([C@]23CCC[C@H]2CSC(N)=N3)c1 [Example 238],350
13,"N#Cc1ccc(C(=O)Nc2ccc(F)c([C@]34CC[C@H](F)C[C@H]3CSC(N)=N4)c2)nc1 (relative stereo) [Example 215, N-[3-((4aR*,6S*,8aS*)-2-amino-6-fluoro-4,4a,5,5,6,7,8-hexahydrobenzo[d][1,3]thiazin-8a-yl)-4-fluorophenyl]-5-cyanopyridine-2-carboxamide]",10
14,"C[C@H]1OC[C@]2(c3cc(NC(=O)c4ccc(Cl)cn4)ccc3F)N=C(N)SC[C@H]12 (relative stereo) [Example 56, N-[3-((4aS*,5R*,7aS*)-2-amino-5-meth 1-4a,5-dihydro-4H-furo[3,4-d][1,3]thiazin-7a-yl)-4-fluorophenyl]-5-chloropyridine-2-carboxamide]",3
15,"NC1=N[C@@]2(c3cc(NC(=O)c4ccc(F)cn4)ccc3F)CCCC[C@H]2CS1 (single isomer, unassigned) [Example 256, N-[3-((4aR*,8aS*)-2-amino-4,4a,5,6,7,8-hexahydrobenzo[d][1,3]thiazin-8a-yl)-4-fluorophenyl]-5-fluoropyridine-2-carboxamide]",38
16,"NC1=N[C@@]2(c3cc(NC(=O)c4cnc(OC(F)F)cn4)ccc3F)CCC[C@H]2CS1 (single isomer, unassigned) [Example 20, N-[3-((4aR*,7aS*)-2-amino-4a,5,6,7-tetrahydro-4,1-cyclopenta[d][1,3]thiazin-7a-yl-4-fluorophenyl]-5-difluoromethoxypyrazine-2-carboxamide]",5
17,"NC1=N[C@@]2(c3cc(NC(=O)c4ccc(OC(F)F)cn4)ccc3F)COC[C@H]2CS1 (relative stereo) [Example 167, N-[3-((4aS*,7aS*)-2-amino-4a,5-dihydro-4H-furo[3,4-d][1,3]thiazin-7a-yl)-4-fluorophenyl]-5-difluoromethoxypyridine-2-carboxamide]",6
18,CC(=O)c1ccc(C(=O)Nc2ccc(F)c([C@]34CCC[C@H]3CSC(N)=N4)c2)nc1 [Example 237],80
19,Cc1cnc(C(=O)Nc2ccc(F)c([C@]34CCC[C@H]3CSC(N)=N4)c2)cn1 [Example 195],68
20,CO[C@H]1CC[C@]2(c3cc(NC(=O)c4cnc(C(F)F)cn4)ccc3F)N=C(N)SC[C@@H]2C1 [Example 205],25
21,Cc1cnc(C(=O)Nc2ccc(F)c([C@]34CCCC[C@H]3CSC(N)=N4)c2)cn1 [Example 117],158
22,"N#Cc1ccc(C(=O)Nc2ccc(F)c([C@]34CCC[C@H]3CSC(N)=N4)c2)nc1 (single isomer, unassigned) [Example 22, N-[3-((4aR*,7aS*)-2-amino-4a,5,6,7-tetrahydro-4H-cyclopenta[d][1,3]thiazin-7a-yl)-4-fluorophenyl]-5-cyanopyridine-2-carboxamide]",5
23,"NC1=N[C@@]2(c3cc(NC(=O)c4ccc(Cl)cn4)ccc3F)CCOC[C@H]2CS1 (relative stereo) [Example 30, N-[3-((4aS*,8aS*)-2-amino-4a,5,7,8-tetrahydro-4H-6-oxa-3-thia-1-azanaphthalen-8a-yl)-4-fluorophenyl]-5-chloropyridine-2-carboxamide]",11
